Target: T1, Trx-6×His-BCL6 (human BCL6 BTB domain covering amino-acid sequence 5-129) (Homo sapiens, UniProt P41182)
T1 construct: made in house
Assay: HTRF assay (BCL6 / BCOR peptide)
Type: binding
Settings: 1 nM Trx-6×His-BCL6, 300 nM BCOR-AF633 peptide, 2 hours incubation at room temperature; for IC50: read-out: HTRF avg pIC50 (converted)
Experimental: After 2 hours incubation at room temperature the plate was read on a Pherastar FSX (BMG Labtech) plate reader equipped with 337 nm laser excitation filter, a first emission filter at 620 nm and a second emission filter at 665 nm. The % inhibition at each concentration was calculated by normalising FRET ratio to the appropriate high (DMSO with all reagents) and low (DMSO without BCL6) controls.

Molecule | IC50 [nM] | HTRF avg pIC50
Cn1c(=O)c2c(c3cc(Nc4nc(N5CC(O)CC6(CC6)C5)ncc4Cl)ccc31)N[C@@H](C1CC1)C(F)(F)CO2 (mixture of isomers) [Example 11h, (S)-10-((5-chloro-2-((R)-7-hydroxy-5-azaspiro[2.5]octan-5-yl)pyrimidin-4-yl)amino)-2-cyclopropyl-3,3-difluoro-7-methyl-1,2,3,4-tetrahydro-[1,4]oxazepino[2,3-c]quinolin-6(7H)-one:(S)-10-((5-chloro-2-((S)-7-hydroxy-5-azaspiro[2.5]octan-5-yl)pyrimidin-4-yl)amino)-2-cyclopropyl-3,3-difluoro-7-methyl-1,2,3,4-tetrahydro-[1,4]oxazepino[2,3-c]quinolin-6(7H)-one (1:1)] | 5.62 | 
CN(C)[C@H]1CCCN(c2ncc(Cl)c(Nc3ccc4c(c3)c3c(c(=O)n4C)OCC(F)(F)[C@H](C4CC4)N3)n2)C1 [Example 9h, (S)-10-((5-chloro-2-((S)-3-(dimethylamino)piperidin-1-yl)pyrimidin-4-yl)amino)-2-cyclopropyl-3,3-difluoro-7-methyl-1,2,3,4-tetrahydro-[1,4]oxazepino[2,3-c]quinolin-6(7H)-one] | 3.39 | 
Cn1c(=O)c2c(c3cc(Nc4nc(N5CC(C(F)F)C5)ncc4Cl)ccc31)N[C@@H](C1CC1)C(F)(F)CO2 [Example 11u, (S)-10-((5-chloro-2-(3-(difluoromethyl)azetidin-1-yl)pyrimidin-4-yl)amino)-2-cyclopropyl-3,3-difluoro-7-methyl-1,2,3,4-tetrahydro-[1,4]oxazepino[2,3-c]quinolin-6(7H)-one] | 11.5 | 
(S)-10-((5-chloro-2-((R)-3,3-difluoro-5-hydroxypiperidin-1-yl)pyrimidin-4-yl)amino)-2-cyclopropyl-3,3-difluoro-7-methyl-1,2,3,4-tetrahydro-[1,4]oxazepino[2,3-c]quinolin-6(7H)-one:(S)-10-((5-chloro-2-((S)-3,3-difluoro-5-hydroxypiperidin-1-yl)pyrimidin-4-yl)amino)-2-cyclopropyl-3,3-difluoro-7-methyl-1,2,3,4-tetrahydro-[1,4]oxazepino[2,3-c]quinolin-6(7H)-one (1:1) [Example 12e] |  | 8.32
COC1CN(c2ncc(Cl)c(Nc3ccc4c(c3)c3c(c(=O)n4C)OCC(F)(F)[C@H](C4CC4)N3)n2)C1 [Example 11w, (S)-10-((5-chloro-2-(3-methoxyazetidin-1-yl)pyrimidin-4-yl)amino)-2-cyclopropyl-3,3-difluoro-7-methyl-1,2,3,4-tetrahydro-[1,4]oxazepino[2,3-c]quinolin-6(7H)-one] |  | 8.43

Now from value to molecule, other results behind:

IC50 [nM] | Molecule | HTRF avg pIC50
2.04 | Cn1c(=O)c2c(c3cc(Nc4nc(N5CCN6CCCC6C5)ncc4Cl)ccc31)N[C@@H](C1CC1)C(F)(F)CO2 (mixture of isomers) [Example 12h, (S)-10-((5-chloro-2-((S)-hexahydropyrrolo[1,2-a]pyrazin-2(1H)-yl)pyrimidin-4-yl)amino)-2-cyclopropyl-3,3-difluoro-7-methyl-1,2,3,4-tetrahydro-[1,4]oxazepino[2,3-c]quinolin-6(7H)-one:(S)-10-((5-chloro-2-((R)-hexahydropyrrolo[1,2-a]pyrazin-2(1H)-yl)pyrimidin-4-yl)amino)-2-cyclopropyl-3,3-difluoro-7-methyl-1,2,3,4-tetrahydro-[1,4]oxazepino[2,3-c]quinolin-6(7H)-one (1:1)] | 
15.8 | Cn1c(=O)c2c(c3cc(Nc4nc(N5CCCC6CC65)ncc4Cl)ccc31)N[C@@H](C1CC1)C(F)(F)CO2 (stereo partly drawn) [Example 12x25, (2S)-10-((2-(2-azabicyclo[4.1.0]heptan-2-yl)-5-chloropyrimidin-4-yl)amino)-2-cyclopropyl-3,3-difluoro-7-methyl-1,2,3,4-tetrahydro-[1,4]oxazepino[2,3-c]quinolin-6(7H)-one] | 
